Assay results published in BindingDB's records for doi:10.1021/acs.jmedchem.1c01473 (Chapman University School of Pharmacy, 2022).

Biological target: Small conductance calcium-activated potassium channel protein 2 (Rattus norvegicus, UniProt P70604)
Assay: Potentiation of rat KCa2.2a expressed in HEK293 cells assessed as increase in calcium response at -90 mV holding potential measured at 1 to 2 days by patch clamp electrophysiology

Chain of Small conductance calcium-activated potassium channel protein 2 (P70604 whole entry): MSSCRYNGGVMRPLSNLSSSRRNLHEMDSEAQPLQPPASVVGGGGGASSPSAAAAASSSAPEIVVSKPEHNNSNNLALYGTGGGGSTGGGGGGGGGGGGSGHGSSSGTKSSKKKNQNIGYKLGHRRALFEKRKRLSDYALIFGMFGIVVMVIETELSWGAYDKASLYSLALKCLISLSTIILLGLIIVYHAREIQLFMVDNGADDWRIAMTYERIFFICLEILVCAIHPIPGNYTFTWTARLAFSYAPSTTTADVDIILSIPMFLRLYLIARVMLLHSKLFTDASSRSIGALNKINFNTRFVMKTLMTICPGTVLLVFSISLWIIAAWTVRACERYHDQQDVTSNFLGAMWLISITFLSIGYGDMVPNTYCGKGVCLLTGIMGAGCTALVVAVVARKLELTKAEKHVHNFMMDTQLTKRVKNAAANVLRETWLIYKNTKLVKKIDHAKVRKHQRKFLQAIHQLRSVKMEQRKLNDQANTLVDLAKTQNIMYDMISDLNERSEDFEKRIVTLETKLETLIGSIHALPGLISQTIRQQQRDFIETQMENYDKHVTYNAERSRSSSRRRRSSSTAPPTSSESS

Row | SMILES | EC50 [nM]
1 | Cc1cc(Nc2ccc(F)c(Cl)c2)nc(-n2nc(C)cc2C)n1 | 110
2 | Cc1cc(Nc2cc(Cl)ccc2F)nc(-n2nc(C)cc2C)n1 | 91
